The numbers were not newly measured in patent US8871800B2, “Statin and omega-3 fatty acids for reduction of Apo-B levels” (GlaxoSmithKline, LLC, priority 2006, dated 2014), which cites them from elsewhere.

For data set [1], the system named is obese, insulin-resistant men with dyslipidemia. As to conditions: atorvastatin monotherapy 40 mg/day, 6 weeks.
In data set [2] the test system is patients with hyperlipemia. As to conditions: atorvastatin monotherapy 10 mg/day, 5 weeks; compared to baseline.
Data set [3] relates to patients with hypercholesterolemia. As to conditions: lovastatin monotherapy 40 mg/day, 6 weeks.
In data set [4] the test system is patients with familial hypercholesterolemia. As to conditions: monotherapy (6 g/day Omacor or 40 mg/day lovastatin), 6 weeks.

`CC(C)c1c(C(=O)Nc2ccccc2)c(-c2ccccc2)c(-c2ccc(F)cc2)n1CC[C@@H](O)C[C@@H](O)CC(=O)O` [atorvastatin]: the Apo-B levels entry in data set [1] is listed as “significantly decreased”. Further, in data set [2], the Apo-B levels entry is “significantly decreased”, the HDL-C levels entry is given as “significantly increased”, the LDL-C levels result was “significantly decreased” and the triglyceride levels result is recorded as “significantly decreased”.

With `CC[C@H](C)C(=O)O[C@H]1C[C@@H](C)C=C2C=C[C@H](C)[C@H](CC[C@@H]3C[C@@H](O)CC(=O)O3)[C@H]21` [lovastatin], in data set [3], the Apo-B levels entry was “significantly reduced”, the HDL-C levels entry was “significant increases”, the LDL-C levels result is reported as “significant decreases” and the triglyceride levels entry is on record as “significant decreases”. Further, the Apo-B levels entry in data set [4] is “significantly reduced”.
